Test results from patent publication US12310372B1, “Water-based insect repellent composition” (priority 2022, dated 2025).

Tested on: Culex quinquefasciatus
Assay: K & D Module Repellency Test (Complete Protection Time on volunteer's arm)
Type: in vivo
Conditions: Table 2; for Avg Duration: active package only in water/isopropanol, 100% repellency threshold (CPT)
Text: Efficacy, Duration, and Percent Repellency: The primary method used to assess the efficacy and duration of an insect repellent is the “Arm-in-Cage Test”. The term “duration” as used herein refers to the time between (1) the application of the insect repellent composition and (2) when the subject first drops below the applicable minimum percent repellency threshold. For all of the testing methodologies used herein, the minimum threshold value for “percent repellency” at which the measurement for duration is cutoff is at least (≥) 90% repellency. For some testing methodologies used herein (such as the “Arm-in-Cage Test”), the minimum threshold value for “percent repellency” was 90% repellency. For other testing methodologies used herein (such as the “K & D Module Repellency Test”), the minimum threshold value for percent repellency was 100% repellency. When a duration is measured using a minimum threshold of 100% repellency, the duration may also be referred to as “Complete Protection Time” (CPT).
Another method that may be used to assess the insect repellent efficacy of an insect repellent composition is the “K & D Module Repellency Test.” The insect repellent efficacy is measured using a minimum repellency threshold of 100% repellency, which may also be referred to as the Complete Protection Time (CPT) of an insect repellent composition, which is the time period between the application of the insect repellent composition and the first insect landing.
In the K & D Module Repellency Test the test volunteer used a marker and a template, representing the base and the 3 cm.×4 cm. openings of the K & D module, to mark skin areas of his/her arm which were then treated with different insect repellent compositions at a skin dose of 0.0017 grams/cm^2 against the insect (in this case, Culex quinquefasciatus). The rectangular marks on the volunteer's arm represented where the six cells of the K & D module were positioned on the volunteer's arm. Each cell of the K & D module was filled with ten mated female mosquitoes (Culex quinquefasciatus), and the floor slide was removed from each cell to expose all mosquitoes to all skin treatments. The time between removing the floor slide of each cell and the first mosquito from the cell landing is recorded as the CPT.

SMILES | Avg Duration | Avg Duration (skin dose 0.0017 grams/cm^2) | Duration (Min) (Time of confirmation land) Subject 1 (active package only) | Duration (Min) (Time of confirmation land) Subject 2 (active package only) | Duration (Min) (Time of confirmation land) Subject 3 (active package only) | Duration (Min) (Time of confirmation land) Subject 4 (active package only, Subject 4)
C=CCc1ccc(O)c(OC)c1 [CE17, eugenol] | 1.7 h | 1.67 h | 60 min | 120 min | 120 min | 100 min
CC(C)=CCC/C(C)=C/CO [CE36, geraniol] | 0.8 h | 0.833 h | 30 min | 60 min | 60 min | –
